The source of these data is patent US12110286B2, “Benzimidazolone derived inhibitors of BCL6” (Cancer Research Technology Limited, priority 2017, dated 2024).

The target of assay [1] is Trx-6×His-BCL6 (human BCL6 BTB domain covering amino-acid sequence 5-129) (Homo sapiens (Human), UniProt P41182). In words: HTRF in vitro assay (BCL6 / BCOR-AF633 peptide). The format is binding. The settings on record: for IC50: read-out: HTRF pIC50 (converted). The method, then: The % inhibition at each concentration was calculated by normalising FRET ratio to the appropriate high (DMSO with all reagents) and low (DMSO without BCL6) controls.
(Time-resolved FRET reads energy transfer from a long-lived donor to a nearby acceptor.)

The target of assay [2] is BCL6-NCOR2(SMRT) corepressor protein-protein interaction (Homo sapiens (Human), UniProt P41182). In words: NanoBRET cell assay. The following applies: transfected HEK293T cells, 6 hr; for IC50: read-out: NanoBRET cell pIC50 (converted). Format: cell-based. The protocol:
A cellular nano-Bioluminescence Resonance Energy Transfer (nanoBRET) assay (Promega NanoBRET Nano-Glo Detection System, catalogue number N1662) was used to detect inhibition of the BCL6-NCOR2(SMRT) corepressor protein-protein interaction. DNA encoding full length BCL6 and NCOR2 were inserted into pFC32K.NanoLuc and pFC14K.HaloTag vectors (Promega) to produce C-terminal tagged fusion proteins BCL6-nanoLuc and NCOR2-HaloTag, respectively. HEK293T cells were plated (5×10^5) in T75 tissue culture flask and bulk transfected 48 hours later with Fugene 6 (Promega cat. #E2691) reagent and 18 μg total DNA plasmids encoding BCL6-nanoLuc as donor and NCOR2-HaloTag as acceptor, at a donor:acceptor DNA ratio of 1:25. At 24 hr post-transfection, HEK293T cells were collected and stored in liquid nitrogen in 90% FBS (PAN Biotech UK) and 10% DMSO. […] Frozen transfected HEK293T cells were thawed, centrifuged and freezing medium was replaced by phenol red-free OptiMEM+4% FBS (Life Technology). […] Cells were incubated for 6 hr at 37° C./5% C02 then NanoBRET furimazine substrate (Promega) was added to give a final concentration of 10 μM. After a short centrifugation the plates were read on an Envision (Perkin Elmer) plate reader equipped with a LUM/D600 Dual mirror, Lum 450/40 nm bandpass and D605 nm longpass filters, with a 0.2 sec reading to determine the BRET ratio. The % inhibition at each test concentration was calculated by normalising the BRET ratio to the appropriate high and low controls.
In general terms: Bioluminescence resonance energy transfer reports proximity on the nanometre scale.

Where [3] appears, read: further generated data, 1 nM Trx-6×His-BCL6, 300 nM BCOR-AF633 peptide, 0.5 nM anti-6×His-Terbium cryptate.
[4] abbreviates: initially generated data, 10 nM Trx-6×His-BCL6, 300 nM BCOR-AF633 peptide, 1 nM anti-6×His-Terbium cryptate.

Read-outs that look alike come from different tables or passages of the source.

Regarding `Cc1cc(C)n(-c2ncc(Cl)c(Nc3ccc4c(c3)n(CCC(C)(C)O)c(=O)n4C)n2)n1` [Example 15a, 5-[[5-Chloro-2-(3,5-dimethylpyrazol-1-yl)pyrimidin-4-yl]amino]-3-(3-hydroxy-3-methyl-butyl)-1-methyl-benzimidazol-2-one], the “HTRF pIC50” value is given as 6.61 in assay [1] (setting [3]) and 6.56 in assay [1] (setting [4]). In addition, the IC50 was 1780 nM in assay [2] (further generated data) and 2040 nM in assay [2] (initially generated data).
For `COCC1CCCN(c2ncc(Cl)c(Nc3ccc4c(c3)n(CCC(C)(C)O)c(=O)n4C)n2)C1` (stereo not drawn) [Example 35v, 5-((5-chloro-2-(3-(methoxymethyl)piperidin-1-yl)pyrimidin-4-yl)amino)-3-(3-hydroxy-3-methylbutyl)-1-methyl-1,3-dihydro-2H-benzo[d]imidazol-2-one], in assay [1] (setting [3]), the “HTRF pIC50” value is recorded as 6.70. The IC50 in assay [2] (further generated data) was 2340 nM.
For `Cn1c(=O)n(CCC(C)(C)O)c2cc(Nc3nc(N4CCC(C(F)(F)F)CC4)ncc3Cl)ccc21` [Example 35g, 5-((5-chloro-2-(4-(trifluoromethyl)piperidin-1-yl)pyrimidin-4-yl)amino)-3-(3-hydroxy-3-methylbutyl)-1-methyl-1,3-dihydro-2H-benzo[d]imidazol-2-one], in assay [1] (setting [3]), the “HTRF pIC50” value stood at 6.12. Further, the IC50 in assay [2] (further generated data) is 2240 nM.
The matching figures for `CC(C)(O)CCn1c(=O)n(CCC(C)(C)O)c2ncc(Nc3nc(N4CC(C)(C)OC(C)(C)C4)ncc3Cl)cc21` [Example 35q, 6-((5-chloro-2-(2,2,6,6-tetramethylmorpholino)pyrimidin-4-yl)amino)-1,3-bis(3-hydroxy-3-methylbutyl)-1,3-dihydro-2H-imidazo[4,5-b]pyridin-2-one]: 6.63 and 1700 nM.
The matching figures for `Cc1nn(-c2ncc(Cl)c(Nc3ccc4c(c3)n(CCC(C)(C)O)c(=O)n4C)n2)c(C)c1Cl` [Example 15n]: 6.35 and 1820 nM.
On the same counts, the results for `CN(C)C(=O)C1CCN(c2ncc(Cl)c(Nc3ccc4c(c3)n(CCC(C)(C)O)c(=O)n4C)n2)CC1` [Example 20c] are 6.60 and 2140 nM.
Consider `Cc1cc(C)n(-c2cc(Nc3ccc4c(c3)n(CCC(C)(C)O)c(=O)n4C)c(Cl)cn2)n1` [Example 30a, 5-((5-chloro-2-(3,5-dimethyl-1H-pyrazol-1-yl)pyridin-4-yl)amino)-3-(3-hydroxy-3-methylbutyl)-1-methyl-1,3-dihydro-2H-benzo[d]imidazol-2-one], for which the “HTRF pIC50” value in assay [1] (setting [3]) worked out at 6.09. Further, the IC50 in assay [2] (further generated data) is 3090 nM.
On to `C[C@@H]1CN(c2ncc(Cl)c(Nc3ccc4c(c3)n(CCC(C)(C)O)c(=O)n4C)n2)C[C@H](C)N1C` [Example 35l, 5-((5-chloro-2-((3S,5R)-3,4,5-trimethylpiperazin-1-yl)pyrimidin-4-yl)amino)-3-(3-hydroxy-3-methylbutyl)-1-methyl-1,3-dihydro-2H-benzo[d]imidazol-2-one], for which the “HTRF pIC50” value in assay [1] (setting [3]) is 6.76. The IC50 in assay [2] (further generated data) was 1510 nM.
As to `CNC(=O)c1cc(Nc2ccc3c(c2)n(CCC(C)(C)O)c(=O)n3C)c(C#N)c(Cl)n1` [Example 1a, 6-Chloro-5-cyano-4-[[3-(3-hydroxy-3-methyl-butyl)-1-methyl-2-oxo-benzimidazol-5-yl]amino]-N-methyl-pyridine-2-carboxamide], the results for the “HTRF pIC50” value in assay [1] (setting [3]) and in assay [1] (setting [4]) were 6.22 and 6.48, respectively. Moreover, the “NanoBRET cell pIC50” value in assay [2] (further generated data) was found to be 5.45. Besides, in assay [2] (initially generated data), the IC50 is 3550 nM.
Take `CNC(=O)c1cc(Nc2ccc3c(c2)n(CC[C@@H](C)O)c(=O)n3C)c(C#N)c(Cl)n1` [Example 4, 6-Chloro-5-cyano-4-[[3-[(3R)-3-hydroxybutyl]-1-methyl-2-oxo-benzimidazol-5-yl]amino]-N-methyl-pyridine-2-carboxamide]: the entries for the “HTRF pIC50” value in assay [1] (setting [3]) and in assay [1] (setting [4]) were 5.79 and 5.99, respectively. Moreover, the “NanoBRET cell pIC50” value in assay [2] (further generated data) was found to be 5.20. For the same compound, the IC50 in assay [2] (initially generated data) was 6310 nM.
`Cn1c(=O)n(CCC(C)(C)O)c2cc(Nc3nc(-n4ncc5ccccc54)ncc3Cl)ccc21` [Example 17b, 5-((5-chloro-2-(1H-indazol-1-yl)pyrimidin-4-yl)amino)-3-(3-hydroxy-3-methylbutyl)-1-methyl-1,3-dihydro-2H-benzo[d]imidazol-2-one]: in assay [1] (setting [3]), the “HTRF pIC50” value was 6.21. Further, the IC50 in assay [2] (further generated data) was 1910 nM.
In the case of `Cn1c(=O)n(CCC(C)(C)O)c2cc(Nc3nc(-c4n[nH]c5ccccc45)ncc3Cl)ccc21` [Example 17a, 5-((5-chloro-2-(1H-indazol-3-yl)pyrimidin-4-yl)amino)-3-(3-hydroxy-3-methylbutyl)-1-methyl-1,3-dihydro-2H-benzo[d]imidazol-2-one], the IC50 was 537 nM in assay [1] (setting [3]) and 1150 nM in assay [2] (further generated data).
On to `Cn1c(=O)n(CCC(C)(C)O)c2cc(Nc3nc(N4CCOC(C(F)(F)F)C4)ncc3Cl)ccc21` (stereo not drawn) [Example 28b, 5-((5-chloro-2-(2-(trifluoromethyl)morpholino)pyrimidin-4-yl)amino)-3-(3-hydroxy-3-methylbutyl)-1-methyl-1,3-dihydro-2H-benzo[d]imidazol-2-one], for which the “HTRF pIC50” value in assay [1] (setting [3]) was 6.55. In addition, in assay [2] (further generated data), the IC50 is 2190 nM.
With `COCC(C)(O)CCn1c(=O)n(C)c2ccc(Nc3nc(N4CCC(C(=O)N(C)C)CC4)ncc3Cl)cc21` (stereo not drawn) [Example 15i], in assay [1] (setting [3]), the “HTRF pIC50” value is recorded as 6.75. The IC50 in assay [2] (further generated data) was 2190 nM.
For `Cn1c(=O)n(CCC(C)(C)O)c2cc(Nc3nc(N4[C@@H]5CCC[C@H]4CC5)ncc3Cl)ccc21` [Example 35m, 5-((2-((1R,5S)-8-azabicyclo[3.2.1]octan-8-yl)-5-chloropyrimidin-4-yl)amino)-3-(3-hydroxy-3-methylbutyl)-1-methyl-1,3-dihydro-2H-benzo[d]imidazol-2-one], in assay [1] (setting [3]), the “HTRF pIC50” value amounted to 6.81. The IC50 in assay [2] (further generated data) was 741 nM.
On to `Cc1cc(Nc2ccc3c(c2)n(CCC(C)(C)O)c(=O)n3C)c(C#N)c(Cl)n1` [Example 1b, 2-chloro-4-[[3-(3-hydroxy-3-methyl-butyl)-1-methyl-2-oxo-benzimidazol-5-yl]amino]-6-methyl-pyridine-3-carbonitrile], for which, in assay [1] (setting [4]), the “HTRF pIC50” value is 6.09. For the same compound, the “NanoBRET cell pIC50” value in assay [2] (further generated data) came to 5.28. For the same compound, in assay [2] (initially generated data), the IC50 was 5250 nM.
`CCC(C)(O)CCn1c(=O)n(C)c2ccc(Nc3nc(N4CCC(C(=O)N(C)C)CC4)ncc3Cl)cc21` (stereo not drawn) [Example 15l]: in assay [1] (setting [3]), the “HTRF pIC50” value came out at 6.63. Besides, the IC50 in assay [2] (further generated data) was 1320 nM.
`C[C@@H]1CN(c2ncc(Cl)c(Nc3ccc4c(c3)n(CCC(C)(C)O)c(=O)n4C)n2)C[C@@H](C2CC2)O1` [Example 21b, 5-((5-chloro-2-((2R,6R)-2-cyclopropyl-6-methylmorpholino)pyrimidin-4-yl)amino)-3-(3-hydroxy-3-methylbutyl)-1-methyl-1,3-dihydro-2H-benzo[d]imidazol-2-one]: the “HTRF pIC50” value in assay [1] (setting [3]) came to 7.01. The IC50 in assay [2] (further generated data) is 1380 nM.
With `C[C@@H]1CN(c2ncc(Cl)c(Nc3ccc4c(c3)n(CCC(C)(C)O)c(=O)n4C)n2)C[C@H](C2CC2)O1` [Example 21a, 5-((5-chloro-2-((2S,6R)-2-cyclopropyl-6-methylmorpholino)pyrimidin-4-yl)amino)-3-(3-hydroxy-3-methylbutyl)-1-methyl-1,3-dihydro-2H-benzo[d]imidazol-2-one], the IC50 is 100 nM in assay [1] (setting [3]) and 1350 nM in assay [2] (further generated data).
As for `Cn1c(=O)n(CCC(C)(C)O)c2cc(Nc3nc(-n4ccc(C(F)(F)F)n4)ncc3Cl)ccc21` [Example 15d], the “HTRF pIC50” value in assay [1] (setting [3]) is reported as 6.41. Also, in assay [2] (further generated data), the IC50 was 1290 nM.
The matching figures for `Cn1c(=O)n(CCC(C)(C)O)c2cc(Nc3nc(N4C5CC6CC(C5)CC4C6)ncc3Cl)ccc21` [Example 35t, 5-((2-((1r,3r,5r,7r)-2-azaadamantan-2-yl)-5-chloropyrimidin-4-yl)amino)-3-(3-hydroxy-3-methylbutyl)-1-methyl-1,3-dihydro-2H-benzo[d]imidazol-2-one]: 6.46 and 2340 nM.
For `Cc1ccnn1-c1ncc(Cl)c(Nc2ccc3c(c2)n(CCC(C)(C)O)c(=O)n3C)n1` [Example 16b, 5-((5-chloro-2-(5-methyl-1H-pyrazol-1-yl)pyrimidin-4-yl)amino)-3-(3-hydroxy-3-methylbutyl)-1-methyl-1,3-dihydro-2H-benzo[d]imidazol-2-one], the “HTRF pIC50” value in assay [1] (setting [3]) is reported as 6.31.
For the compound `Cn1c(=O)n(CCC(C)(C)O)c2cc(Nc3nc(Cl)nc(Cl)c3Cl)ccc21` [Example 22i], the “HTRF pIC50” value in assay [1] (setting [3]) is 5.54.
